In the supplement of paper PMC10307832:

Columns and labels:
Assay in all cases: relative viability (nuclei count vs DMSO), 5 days (fraction); higher = more cells survive
4EGI-1 + Luminespib = compound: O=C(O)C(Cc1ccccc1[N+](=O)[O-])=NNc1nc(-c2ccc(Cl)c(Cl)c2)cs1 (mixture of isomers) [4EGI-1] + CCNC(=O)c1noc(-c2cc(C(C)C)c(O)cc2O)c1-c1ccc(CN2CCOCC2)cc1 [Luminespib] (partner 0.01 µM)
Method in brief: (§1)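 Lung cancer cell lines were seeded in 1536-well plates and dosed by pin tool the next day, with either a single drug or a fixed anchor-drug dose combined with five library-drug doses (not always all listed) spaced in √10 steps. Five days later, one step fixed the cells and stained their nuclei (final 0.05% Triton X-100, 1% formaldehyde, 1 ug/ml Hoechst), and nuclei were counted on 4× images. Relative viability is the nuclei count in treated wells divided by the count in vehicle wells, and each value is the median of duplicate plates.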

XMD8-85 + Decitabine = compound: CN1CCN(CC1)C2=CC(=C(C=C2)NC3=NC=C4C(=N3)N(C5=CC=CC=C5C(=O)N4C)C)OC [XMD8-85] + Nc1ncn([C@H]2C[C@H](O)[C@@H](CO)O2)c(=O)n1 [Decitabine] (partner 2 µM)
Method in brief: as §1

4EGI-1 + Dasatinib = compound: O=C(O)C(Cc1ccccc1[N+](=O)[O-])=NNc1nc(-c2ccc(Cl)c(Cl)c2)cs1 (mixture of isomers) [4EGI-1] + Cc1nc(Nc2ncc(C(=O)Nc3c(C)cccc3Cl)s2)cc(N2CCN(CCO)CC2)n1 [Dasatinib] (partner 0.075 µM)
Method in brief: as §1

XMD8-85 + Bortezomib = compound: CN1CCN(CC1)C2=CC(=C(C=C2)NC3=NC=C4C(=N3)N(C5=CC=CC=C5C(=O)N4C)C)OC [XMD8-85] + CC(C)C[C@H](NC(=O)[C@H](Cc1ccccc1)NC(=O)c1cnccn1)B(O)O [Bortezomib] (partner 0.002 µM)
Method in brief: as §1

Row | Cell Line | relative viability (4EGI-1 + Luminespib; first compound 0.5 µM) | relative viability (4EGI-1 + Luminespib; first compound 5 µM) | relative viability (4EGI-1 + Luminespib; first compound 15.81 µM) | relative viability (4EGI-1 + Luminespib; first compound 50 µM) | relative viability (XMD8-85 + Decitabine; first compound 0.08 µM) | relative viability (XMD8-85 + Decitabine; first compound 0.253 µM) | relative viability (XMD8-85 + Decitabine; first compound 0.8 µM) | relative viability (XMD8-85 + Decitabine; first compound 2.53 µM) | relative viability (XMD8-85 + Decitabine; first compound 8 µM) | relative viability (4EGI-1 + Dasatinib; first compound 0.5 µM) | relative viability (4EGI-1 + Dasatinib; first compound 5 µM) | relative viability (4EGI-1 + Dasatinib; first compound 15.81 µM) | relative viability (4EGI-1 + Dasatinib; first compound 50 µM) | relative viability (4EGI-1 + Luminespib; first compound 1.581 µM) | relative viability (XMD8-85 + Bortezomib; first compound 0.08 µM) | relative viability (XMD8-85 + Bortezomib; first compound 0.253 µM) | relative viability (XMD8-85 + Bortezomib; first compound 0.8 µM) | relative viability (XMD8-85 + Bortezomib; first compound 2.53 µM) | relative viability (XMD8-85 + Bortezomib; first compound 8 µM) | relative viability (4EGI-1 + Dasatinib; first compound 1.581 µM)
1 | SW 900 | 0.253 | 0.177 | 0.156 | 0.191 | 0.505 | 0.45 | 0.406 | 0.458 | 0.506 | 0.641 | 0.528 | 0.487 | 0.547 |  |  |  |  |  |  | 
2 | NCI-H520 | 0.231 | 0.184 | 0.256 | 0.205 |  | 0.506 | 0.496 | 0.528 | 0.429 | 0.204 | 0.187 | 0.215 | 0.153 | 0.241 | 0.491 | 0.51 | 0.772 | 0.507 | 0.205 | 0.276
3 | NCI-H358 | 0.339 | 0.293 | 0.224 | 0.153 | 0.219 | 0.243 | 0.229 | 0.234 | 0.198 | 0.151 | 0.183 | 0.139 | 0.0975 | 0.353 |  |  |  |  |  | 0.16
4 | NCI-H1650 | 0.197 | 0.19 | 0.203 | 0.221 | 0.539 | 0.414 | 0.487 | 0.374 | 0.371 | 0.307 | 0.364 | 0.219 | 0.136 |  | 0.26 | 0.197 | 0.192 | 0.173 | 0.179 | 
5 | RERF-LC-KJ | 1.16 | 1.17 | 0.994 | 0.281 |  | 0.703 | 0.811 | 0.767 | 0.496 | 0.999 | 0.641 | 0.496 | 0.266 |  | 0.937 | 1.07 | 1.06 | 1.2 | 0.742 | 
6 | LOU-NH91 | 0.351 | 0.398 | 0.328 | 0.34 | 0.797 | 0.852 | 0.793 | 0.821 | 0.646 | 0.569 | 0.505 | 0.378 | 0.458 |  | 0.448 | 0.466 | 0.488 | 0.489 | 0.4 | 
7 | Calu-6 |  |  |  |  |  |  |  |  |  |  |  |  |  |  | 1.16 | 0.973 | 1.04 | 1.05 | 0.78 | 
8 | HCC-78 |  |  |  |  | 0.672 | 0.694 | 0.736 | 0.671 | 0.675 | 0.41 | 0.383 | 0.34 | 0.357 |  | 0.639 | 0.455 | 0.375 | 0.495 | 0.316 | 
9 | NCI-H1299 |  |  |  |  |  |  |  |  |  |  |  |  |  |  | 1.07 | 1.09 | 1.02 | 0.996 | 0.781 | 
10 | HCC-44 | 1.22 | 0.979 | 0.764 | 0.23 | 0.976 | 0.979 | 0.922 | 0.973 | 0.887 |  |  |  |  |  | 0.938 | 0.911 | 0.816 | 0.962 | 0.679 | 
11 | A549 |  |  |  |  | 0.296 | 0.252 | 0.237 | 0.369 | 0.384 |  |  |  |  |  |  |  |  |  |  | 
12 | HCC-366 |  |  |  |  | 0.342 | 0.302 | 0.375 | 0.511 | 0.393 | 0.772 | 0.629 | 0.67 | 0.308 |  | 0.91 | 0.815 | 1.08 | 1.1 | 1.09 | 0.587
13 | NCI-H2342 | 0.854 | 0.724 | 0.904 | 0.677 | 0.7 | 0.709 | 0.677 | 0.777 | 0.867 | 0.299 | 0.292 | 0.292 | 0.257 | 0.758 |  |  |  |  |  | 0.3
14 | NCI-H1563 | 0.447 | 0.542 | 0.5 | 0.412 |  |  |  |  |  | 0.441 | 0.441 | 0.494 | 0.424 | 0.567 | 0.848 | 0.855 |  | 0.839 | 0.645 | 0.435
15 | NCI-H1395 | 0.717 | 0.766 | 0.789 | 0.496 | 0.609 | 0.762 | 0.722 | 0.701 | 0.716 | 0.423 | 0.436 | 0.442 | 0.32 | 0.436 |  |  |  |  |  | 0.471
16 | IA-LM |  |  |  |  |  |  |  |  |  |  |  |  |  |  | 0.814 |  | 0.836 |  | 0.163 | 
17 | NCI-H2170 | 0.931 | 0.778 | 0.741 | 0.352 | 0.478 | 0.478 | 0.498 | 0.497 | 0.484 | 0.676 | 0.628 | 0.473 | 0.173 | 0.635 |  |  |  |  |  | 0.504
18 | NCI-H1623 | 0.637 | 0.707 | 0.383 | 0.387 |  |  |  |  |  | 0.507 | 0.575 | 0.437 | 0.414 | 0.553 |  |  |  |  |  | 0.446
19 | NCI-H2228 | 0.147 | 0.258 | 0.135 | 0.17 |  |  |  |  |  | 0.472 | 0.496 | 0.552 | 0.13 | 0.148 | 1.15 | 0.872 | 0.924 | 1.04 | 0.582 | 0.653
20 | NCI-H1944 | 0.717 | 0.774 | 0.633 | 0.561 | 0.451 | 0.404 | 0.462 | 0.456 | 0.422 | 0.22 | 0.199 | 0.172 | 0.135 |  |  |  |  |  |  | 
21 | CAL-12T | 0.411 | 0.186 | 0.4 | 0.251 |  |  |  |  |  | 0.504 | 0.449 | 0.297 | 0.0969 | 0.149 | 0.979 | 0.95 | 0.864 | 0.964 | 0.584 | 0.206
22 | LK-2 | 0.192 | 0.269 | 0.206 | 0.162 | 0.255 | 0.295 | 0.268 | 0.246 | 0.232 | 0.253 | 0.309 | 0.254 | 0.134 |  |  |  |  |  |  | 
23 | SK-MES-1 | 0.705 | 0.831 | 0.669 | 0.188 | 0.348 | 0.353 | 0.39 | 0.39 | 0.3 | 0.479 | 0.34 | 0.356 | 0.198 | 0.686 |  |  |  |  |  | 0.312
24 | NCI-H522 | 1.18 | 1.13 | 1.33 | 0.711 | 0.739 | 0.669 | 0.615 | 0.782 | 0.635 | 1.02 | 0.858 | 0.893 | 0.556 | 0.612 |  |  |  |  |  | 0.735
